Assay results from patent US20140249191A1, “Compositions for Controlling Vascularization in Ophthalmological and Dermatological Diseases” (AVIENNE PHARMACEUTICALS GMBH, priority 2011, published 2014).
Entries after “also recorded” stand apart in the source; their conditions may differ.

What was measured:
[1] = system: chorioallantoic membrane vascularisation; test: Chorioallantoic membrane (CAM) assay; assay type: in vivo, chicken embryo; conditions: applied on CAM day 6 p.f., incubated until day 11 p.f.
From the text: Local Application of AV-398 inhibits in vivo angiogenesis as evidenced by the chicken egg chorioallantoic membrane model. The chorioallantoic membrane (CAM) of the developing chicken embryo serves as an alternative to the traditional mammalian in vivo models, and further corroborates the findings in pigs described above and has clear relevance for the treatment e.g. dermatological indications linked to neoangiogenesis. AV-398 was applied over 5 days.
Eggs were opened on day 6 post fertilization (p.f.). Substances (200 μl respectively) were applied on the CAM on day 6 p.f. and incubated until day 11 p.f. As a vehicle control, 1% DMSO in PBS (phosphate-buffered saline solution pH 7.4) without AV-398 was used. Eggs were inspected daily by stereo-microscopy and pictures were taken (6× magnification).

[2] = system: endothelial cells of different origin (lung, lymphatics and umbilical); test: Endothelial cell proliferation assay (direct cell counting); assay type: cell-based, human
Procedure: Primary endothelial cell lines (HMVEC-dLyAd—human dermal lymphatic microvascular endothelial cells (EC), dermal blood microvascular EC, HMVEC-LB lung blood microvascular EC, HMVEC-C cardiac human microvascular endothelial cells and MVEC-d—dermal microvascular EC) are from Cambrex Bio Science (Cambrex Bio Science Walkersville Inc., Walkersville, Md., USA). Cell lines are cultured according to the manufacturer's recommendations.
For proliferation assays, cells are seeded in 24- to 96-well plates in medium at different concentrations according to the cell type. After 24 hours, the medium is removed and replaced with fresh medium containing increasing concentrations of the compounds. The plates are then incubated for additional 24 to 72 hours, depending on the type of the experiment. Cells are then trypsinized and collected for direct counting. Results are plotted and expressed as means (±SE) for each compound and for a given concentration.

[3] = system: ocular angiogenesis; test: Conjunctival incision ocular angiogenesis model; assay type: in vivo, white pigs; conditions: pigs, eye drops 100 μg/ml
From the text: AV-398 inhibits ocular angiogenesis in vivo in a widely accepted large animal model. The cornea is an ideal model system for angiogenesis in general, and more specifically for angiogenesis of the eye. The corneal angiogenesis assay is one of the most widely used in vivo assay for the evaluation of factors influencing angiogenesis (Auerbach R, 2003, Thiele W, 2006). One reason that makes the cornea an ideal object for observing neovascularisation is its normal lack of vascularity, maintained by different molecular mechanisms. New vessels can easily be identified by visual inspection alone and quantified with the help of computerized image analysis programs. The effect of an ophthalmological formulation of AV-398 after a conjunctival insult with subsequent angiogenesis in a large animal model was investigated in order to test whether the in vitro data, such as anti-proliferative effects on human endothelial cells, could be reproduced in vivo. Six white pigs weighing 10 to 15 kg were included. First, corneae and conjunctivae were anaesthesized by local application of lidocaine 4%. Then, an incision of 0.5 cm length through the conjunctival tunica sclerae to the substantia propria was placed in parallel to the dorsal corneal limbus at a distance of approximately 2 mm. The animals were treated as follows. […]

[4] = target: αvβ3-receptor (Homo sapiens, UniProt P05106+P06756); conditions: Dayam et al, 2006; cited from earlier work
αvβ3-receptor, sequence (P06756 31-889 limits assumed): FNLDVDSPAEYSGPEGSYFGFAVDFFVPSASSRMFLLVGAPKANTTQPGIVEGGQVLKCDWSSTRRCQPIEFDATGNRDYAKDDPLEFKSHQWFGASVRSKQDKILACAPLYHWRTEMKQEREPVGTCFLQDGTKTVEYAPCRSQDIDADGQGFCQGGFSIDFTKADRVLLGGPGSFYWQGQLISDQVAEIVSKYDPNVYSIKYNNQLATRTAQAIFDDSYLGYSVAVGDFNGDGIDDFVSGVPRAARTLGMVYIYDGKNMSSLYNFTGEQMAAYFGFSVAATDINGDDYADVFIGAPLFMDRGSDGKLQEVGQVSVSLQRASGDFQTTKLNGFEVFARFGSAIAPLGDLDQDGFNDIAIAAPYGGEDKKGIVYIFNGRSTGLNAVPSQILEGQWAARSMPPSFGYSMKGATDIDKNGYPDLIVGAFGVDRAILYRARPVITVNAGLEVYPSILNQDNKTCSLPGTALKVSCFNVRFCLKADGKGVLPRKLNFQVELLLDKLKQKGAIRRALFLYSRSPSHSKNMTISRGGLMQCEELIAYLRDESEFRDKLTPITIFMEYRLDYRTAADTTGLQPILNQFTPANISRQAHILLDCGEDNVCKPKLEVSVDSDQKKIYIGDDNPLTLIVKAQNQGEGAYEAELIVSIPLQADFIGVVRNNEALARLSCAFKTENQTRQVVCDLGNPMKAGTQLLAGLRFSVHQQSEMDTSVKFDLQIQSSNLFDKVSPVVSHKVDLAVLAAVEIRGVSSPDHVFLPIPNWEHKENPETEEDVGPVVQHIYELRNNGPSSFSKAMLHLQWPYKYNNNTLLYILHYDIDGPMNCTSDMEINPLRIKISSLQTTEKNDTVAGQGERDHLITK
αvβ3-receptor, sequence (P06756 891-1048 partner limits assumed): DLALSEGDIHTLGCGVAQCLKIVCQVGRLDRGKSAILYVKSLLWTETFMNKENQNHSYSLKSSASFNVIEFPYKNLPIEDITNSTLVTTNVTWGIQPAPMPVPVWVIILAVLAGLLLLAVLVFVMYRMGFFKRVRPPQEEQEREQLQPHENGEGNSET
αvβ3-receptor, sequence (P05106 27-788): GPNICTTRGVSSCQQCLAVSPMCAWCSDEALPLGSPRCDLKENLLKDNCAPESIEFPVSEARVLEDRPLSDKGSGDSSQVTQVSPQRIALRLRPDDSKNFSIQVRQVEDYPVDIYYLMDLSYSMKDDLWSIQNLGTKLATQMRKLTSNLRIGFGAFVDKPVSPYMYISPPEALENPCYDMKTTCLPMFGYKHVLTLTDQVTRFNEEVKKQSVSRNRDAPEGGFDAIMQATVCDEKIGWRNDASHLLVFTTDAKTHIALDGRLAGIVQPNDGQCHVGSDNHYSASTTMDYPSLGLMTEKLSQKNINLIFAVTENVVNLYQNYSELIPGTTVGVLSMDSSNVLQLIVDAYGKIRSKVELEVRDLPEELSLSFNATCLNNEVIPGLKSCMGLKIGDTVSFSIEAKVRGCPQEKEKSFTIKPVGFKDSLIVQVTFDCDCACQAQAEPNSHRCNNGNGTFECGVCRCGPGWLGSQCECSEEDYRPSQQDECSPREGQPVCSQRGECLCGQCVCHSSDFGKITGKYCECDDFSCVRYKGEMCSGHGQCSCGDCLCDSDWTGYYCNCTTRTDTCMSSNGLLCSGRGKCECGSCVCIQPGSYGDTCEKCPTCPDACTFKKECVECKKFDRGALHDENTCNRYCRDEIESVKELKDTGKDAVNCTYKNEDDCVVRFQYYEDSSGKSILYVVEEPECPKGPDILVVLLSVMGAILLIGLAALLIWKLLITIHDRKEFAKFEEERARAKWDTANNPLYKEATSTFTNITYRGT

[5] = system: SAOS-2, Hela, HT29, U87MG and SK-N-DZ cells; test: Cytotoxic activity in cancer cell lines (cell numbers); assay type: cell-based; conditions: up to 20 μM; uncoated dishes or coated with vitronectin or fibrinogen
Procedure: For example, cytotoxic activity of AV-398 was determined in several cancer cell lines (SAOS-2, Hela, HT29, U87MG and SK-N-DZ cells) by assessing cell numbers after treating cell lines with varying concentration of up to 20 μM. Experiments were performed either on uncoated dishes, or on dishes coated with vitronectin or fibrinogen. In addition, tumor cell lines were treated in parallel with echistatin (Gan Z R et al (1998)). […] Similar data were recently published showing cytotoxic activity also only against MDA-MB-435 breast cancer cells (Dayam R et al, 2006).

With `CCOc1cc(C=C2S/C(=N/c3ccc(C(=O)O)cc3)N(C)C2=O)ccc1O` (stereo in doubt) [AV-398, 4-({5-[(E)-1-(3-ethoxy-4-hydroxyphenyl)methylidene]-3-methyl-4-oxo-1,3-thiazolan-2-yliden}amino)benzoic acid] the “vascularisation of chicken embryo CAM versus vehicle control” value [1] was “markedly decreased vascularisation; also recorded: significant reduction of vascularisation”, the “antiproliferative effect against endothelial cells” value [2] was “strong antiproliferative effect” and the “bleeding surrounding the incision immediately after treatment” value [3] was “marked diffuse bleeding”. For the same compound, the “neoangiogenesis on treated conjunctivae versus control-treated eyes” value ([3]; topical after incision) was “diminished neoangiogenesis”, the avβ3 binding affinity [4] was 240 nM and the “effects on cancer cell lines (cytotoxic activity)” value [5] was “no meanigful effects”.
